Data published in US9822147B2, “Methods of treating ophthalmic diseases using NPR-B agonists” (priority 2009, dated 2017).
Numbered stars: 1 amine (or outer) side, 2 acyl side, 3 side chain; on linkers, the order of the positions; unused ones are H or OH. Square brackets hold non-standard residues; d marks the D form. Peptide text beside a SMILES is read from it. * marks the point of attachment. Phe(3-Cl) = N[C@@H](Cc1cccc(Cl)c1)C(=O)O; Phe(4-F) = N[C@@H](Cc1ccc(F)cc1)C(=O)O; Pro(4R-NH2) = N[C@H]1CN[C@H](C(=O)O)C1; X9 = CN(C)CC[C@@H](N[*:1])C(=O)[*:2]; X2 = O=C([C@H]1CCCN([*:1])C1)[*:2]; Hyp = O=C(O)[C@@H]1C[C@@H](O)CN1; 3Thi = N[C@@H](Cc1ccsc1)C(=O)O; NHcycloheptyl = C1CCCC(N*)CC1; NMeL = CN[C@@H](CC(C)C)C(=O)O; dNle = CCCC[C@@H](N)C(=O)O; Octanoyl = CCCCCCCC(=O)*; Api = NC1(C(=O)O)CCNCC1

Target: T1, NPR-B (Homo sapiens, UniProt P20594)
T1 construct: a functional assay using endogenously NPR-B expressing GTM-3 cells; endogenous in cells; host or cells: GTM-3 (human glaucoma trabecular meshwork cells)
T1 sequence (P20594 23-1047): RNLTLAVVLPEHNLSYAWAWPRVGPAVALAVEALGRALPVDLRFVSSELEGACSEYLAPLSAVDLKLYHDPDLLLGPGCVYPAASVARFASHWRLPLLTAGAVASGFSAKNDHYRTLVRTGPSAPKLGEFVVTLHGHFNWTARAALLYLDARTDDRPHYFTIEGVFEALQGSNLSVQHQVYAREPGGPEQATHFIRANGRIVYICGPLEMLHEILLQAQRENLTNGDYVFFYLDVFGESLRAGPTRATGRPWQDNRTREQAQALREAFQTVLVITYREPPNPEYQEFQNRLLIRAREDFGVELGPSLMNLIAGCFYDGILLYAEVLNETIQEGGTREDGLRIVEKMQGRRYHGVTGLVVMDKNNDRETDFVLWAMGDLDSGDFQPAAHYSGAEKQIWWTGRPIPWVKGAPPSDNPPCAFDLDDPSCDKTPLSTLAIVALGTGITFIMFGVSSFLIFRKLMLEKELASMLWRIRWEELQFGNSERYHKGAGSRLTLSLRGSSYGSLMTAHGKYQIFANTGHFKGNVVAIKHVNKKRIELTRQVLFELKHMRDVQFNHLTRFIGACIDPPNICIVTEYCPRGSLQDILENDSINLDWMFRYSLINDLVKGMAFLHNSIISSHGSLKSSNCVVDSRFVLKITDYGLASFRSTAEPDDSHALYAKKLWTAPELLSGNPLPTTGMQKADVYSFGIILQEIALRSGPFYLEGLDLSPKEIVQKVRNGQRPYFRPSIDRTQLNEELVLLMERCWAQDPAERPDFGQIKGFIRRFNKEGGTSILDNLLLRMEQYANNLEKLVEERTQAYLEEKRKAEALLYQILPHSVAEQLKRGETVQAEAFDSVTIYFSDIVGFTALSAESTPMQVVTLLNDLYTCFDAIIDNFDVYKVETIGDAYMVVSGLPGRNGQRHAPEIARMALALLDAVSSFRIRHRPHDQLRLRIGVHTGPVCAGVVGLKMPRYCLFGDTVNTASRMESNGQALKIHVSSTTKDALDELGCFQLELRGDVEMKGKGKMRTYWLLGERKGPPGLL
Assay: NPR-B induced production of cyclic GMP in human glaucoma trabecular meshwork cells (GTM-3)
Type: cell-based
Settings: group by EC50 and Emax (CNP = 100%); Table 4; read-out: Activity (group), NPR-B activation assayed with GTM-3 cells

EC50, < 1 µM:
CCCCCCCC(=O)N1CCC[C@H](C(=O)N[C@@H](Cc2cccc(Cl)c2)C(=O)N[C@H](CC(C)C)C(=O)N[C@@H](CC(C)C)C(=O)N2C[C@H](O)C[C@H]2C(=O)N(C)[C@@H](CC(C)C)C(=O)N[C@@H](CC(=O)O)C(=O)N[C@@H](CCCNC(=N)N)C(=O)N[C@H](C(N)=O)[C@@H](C)CC)C1 [JAL-1618, Occ-Sni-Mcf-leu-Leu-Hyp-Nml-Asp-Arg-Ile-NH2] (Octanoyl-[X2][Phe(3-Cl)][dL]L[Hyp][NMeL]DRI-NH2)
CCCCCCCC(=O)N[C@H](C)C(=O)N[C@@H](Cc1ccccc1)C(=O)N[C@H](CC(C)C)C(=O)N[C@@H](CC(C)C)C(=O)N1C[C@H](N)C[C@H]1C(=O)N(C)[C@@H](CC(C)C)C(=O)N[C@@H](CC(=O)O)C(=O)N[C@@H](CCCNC(=N)N)C(=O)N[C@H](C(N)=O)[C@@H](C)CC [JAL-1296, Occ-ala-Phe-leu-Leu-Tap-Nml-Asp-Arg-Ile-NH2] (HELM PEPTIDE1{[CCCCCCCC(=O)[*:2]].[dA].F.[dL].L.[N[C@@H]1C[C@@H](C(=O)[*:2])N([*:1])C1].[meL].D.R.I.[am]}$$$$V2.0)
CCCCCCCC(=O)N1CCC[C@H](C(=O)N[C@@H](Cc2ccc(F)cc2)C(=O)N[C@H](CC(C)C)C(=O)N[C@@H](CC(C)C)C(=O)N2C[C@H](O)C[C@H]2C(=O)N(C)[C@@H](CC(C)C)C(=O)N[C@@H](CC(=O)O)C(=O)N[C@@H](CCCNC(=N)N)C(=O)N[C@H](C(N)=O)[C@@H](C)CC)C1 [JAL-1487, Occ-Sni-Pff-leu-Leu-Hyp-Nml-Asp-Arg-Ile-NH2] (Octanoyl-[X2][Phe(4-F)][dL]L[Hyp][NMeL]DRI-NH2)
CCCCCCCC(=O)N1CCC[C@H](C(=O)N[C@@H](Cc2ccccc2)C(=O)NC2(C(=O)N[C@@H](CC(C)C)C(=O)N3C[C@H](N)C[C@H]3C(=O)N(C)[C@@H](CC(C)C)C(=O)N[C@@H](CC(=O)O)C(=O)N[C@@H](CCCNC(=N)N)C(=O)N[C@H](C(N)=O)[C@@H](C)CC)CCNCC2)C1 [JAL-1351, Occ-Sni-Phe-Apc-Leu-Tap-Nml-Asp-Arg-Ile-NH2] (Octanoyl-[X2]F[Api]L[Pro(4R-NH2)][NMeL]DRI-NH2)
CCCCCCCC(=O)N[C@H](C)C(=O)N[C@@H](Cc1ccccc1)C(=O)N[C@H](CCCN(C)C)C(=O)N[C@@H](CC(C)C)C(=O)N1C[C@H](O)C[C@H]1C(=O)N(C)[C@@H](CC(C)C)C(=O)N[C@@H](CC(=O)O)C(=O)N[C@@H](CCCNC(=N)N)C(=O)N[C@H](C(N)=O)[C@@H](C)CC [JAL-1288, Occ-ala-Phe-orn(Me2)-Leu-Hyp-Nml-Asp-Arg-Ile-NH2] (HELM PEPTIDE1{[CCCCCCCC(=O)[*:2]].[dA].F.[CN(C)CCC[C@@H](N[*:1])C(=O)[*:2]].L.[Hyp].[meL].D.R.I.[am]}$$$$V2.0)
CCCCCCCC(=O)N1CCCC2(CCN(C(Cc3ccccc3)C(=O)N[C@H](CC(C)C)C(=O)N[C@@H](CC(C)C)C(=O)N3C[C@H](O)C[C@H]3C(=O)N(C)[C@@H](CC(C)C)C(=O)N[C@@H](CC(=O)O)C(=O)N[C@@H](CCCNC(=N)N)C(=O)N[C@H](C(N)=O)[C@@H](C)CC)C2=O)C1 (stereo partly drawn) [JAL-1765-2, (AR-314-87)-leu-Leu-Hyp-Nml-Asp-Arg-Ile-NH2] (HELM PEPTIDE1{[CCCCCCCC(=O)[*:2]].[O=C1N(C(Cc2ccccc2)C(=O)[*:2])CCC12CCCN([*:1])C2].[dL].L.[Hyp].[meL].D.R.I.[am]}$$$$V2.0)
CCCCCCCC(=O)N1CCC[C@H](C(=O)N[C@@H](Cc2ccccc2)C(=O)N[C@H](CCCC)C(=O)N[C@@H](CC(C)C)C(=O)N2C[C@H](O)C[C@H]2C(=O)N[C@@H](CC(C)C)C(=O)N[C@@H](CC(=O)O)C(=O)N[C@@H](CCCNC(=N)N)C(=O)N[C@H](C(N)=O)[C@@H](C)CC)C1 [JAL-1024, Occ-Sni-Phe-nle-Leu-Hyp-Leu-Asp-Arg-Ile-NH2] (Octanoyl-[X2]F[dNle]L[Hyp]LDRI-NH2)
CCCCCCCC(=O)N1CCC[C@H](C(=O)N[C@@H](Cc2ccccc2)C(=O)N[C@H](CCCCN)C(=O)N[C@@H](CC(C)C)C(=O)N2C[C@H](O)C[C@H]2C(=O)N(C)[C@@H](CC(C)C)C(=O)N[C@@H](CC(=O)O)C(=O)N[C@@H](CCCNC(=N)N)C(=O)N[C@H](C(N)=O)[C@@H](C)CC)C1 [JAL-1254, Occ-Sni-Phe-lys-Leu-Hyp-Nml-Asp-Arg-Ile-NH2] (HELM PEPTIDE1{[CCCCCCCC(=O)[*:2]].[O=C([C@H]1CCCN([*:1])C1)[*:2]].F.[dK].L.[Hyp].[meL].D.R.I.[am]}$$$$V2.0)
CCCCCCCC(=O)N[C@H](C)C(=O)N[C@@H](Cc1ccccc1)C(=O)N[C@H](CC(C)C)C(=O)N[C@@H](CC(C)C)C(=O)N1C[C@H](O)C[C@H]1C(=O)N(C)C(CC(C)(C)C)C(=O)N[C@@H](CC(=O)O)C(=O)N[C@@H](CCCNC(=N)N)C(=O)N[C@H](C(N)=O)[C@@H](C)CC (stereo partly drawn) [JAL-1283, Occ-ala-Phe-leu-Leu-Hyp-(SH-158)-Asp-Arg-Ile-NH2] (HELM PEPTIDE1{[CCCCCCCC(=O)[*:2]].[dA].F.[dL].L.[Hyp].[CN(C(CC(C)(C)C)C(=O)[*:2])[*:1]].D.R.I.[am]}$$$$V2.0)
CCCCCCCC(=O)N[C@H](C)C(=O)N[C@@H](Cc1ccccc1)C(=O)N[C@H](CCCNC(=N)N)C(=O)N[C@@H](CC(C)C)C(=O)N1C[C@H](O)C[C@H]1C(=O)N(C)C(CC(C)(C)C)C(=O)N[C@@H](CC(=O)O)C(=O)N[C@@H](CCCNC(=N)N)C(=O)N[C@H](C(N)=O)[C@@H](C)CC (stereo partly drawn) [JAL-1284, Occ-ala-Phe-arg-Leu-Hyp-(SH-158)-Asp-Arg-Ile-NH2] (HELM PEPTIDE1{[CCCCCCCC(=O)[*:2]].[dA].F.[dR].L.[Hyp].[CN(C(CC(C)(C)C)C(=O)[*:2])[*:1]].D.R.I.[am]}$$$$V2.0)
CCCCCCCC(=O)N1CCC[C@H](C(=O)N[C@@H](Cc2ccccc2)C(=O)N[C@H](CC(C)C)C(=O)N[C@@H](CC(C)C)C(=O)N2C[C@H](O)C[C@H]2C(=O)N(C)[C@@H](CC(C)C)C(=O)N[C@H](C(=O)N[C@@H](CCCNC(=N)N)C(=O)NC2CCCCCC2)[C@@H](C)O)C1 [JAL-1753, Occ-Sni-Phe-leu-Leu-Hyp-Nml-Thr-Arg-Che] (Octanoyl-[X2]F[dL]L[Hyp][NMeL]TR-NHcycloheptyl)
CCCCCCCC(=O)N[C@H](C)C(=O)N[C@@H](Cc1ccc(Cl)cc1)C(=O)N[C@H](CC(C)C)C(=O)N[C@@H](CC(C)C)C(=O)N1C[C@H](O)C[C@H]1C(=O)N(C)[C@@H](CC(C)C)C(=O)N[C@@H](CC(=O)O)C(=O)N[C@@H](CCCNC(=N)N)C(=O)N[C@H](C(N)=O)[C@@H](C)CC [JAL-1043, Occ-ala-Pcf-leu-Leu-Hyp-Nml-Asp-Arg-Ile-NH2] (HELM PEPTIDE1{[CCCCCCCC(=O)[*:2]].[dA].[O=C([C@H](Cc1ccc(Cl)cc1)N[*:1])[*:2]].[dL].L.[Hyp].[meL].D.R.I.[am]}$$$$V2.0)
CCCCCCCC(=O)N1CCC[C@H](C(=O)N[C@@H](Cc2ccccc2)C(=O)N[C@H](CCN(C)C)C(=O)N[C@@H](CC(C)C)C(=O)N2C[C@H](O)C[C@H]2C(=O)N(C)[C@@H](CC(C)C)C(=O)N[C@H](C(=O)N[C@@H](CCCNC(=N)N)C(=O)NC2CCCCCC2)C(C)C)C1 [JAL-1784, Occ-Sni-Phe-dab(Me2)-Leu-Hyp-Nml-Val-Arg-Che] (Octanoyl-[X2]F[X9]L[Hyp][NMeL]VR-NHcycloheptyl)
CCCCCCCC(=O)N1CCC[C@H](C(=O)N[C@@H](Cc2ccsc2)C(=O)N[C@H](CC(C)C)C(=O)N[C@@H](CC(C)C)C(=O)N2C[C@H](O)C[C@H]2C(=O)N(C)[C@@H](CC(C)C)C(=O)N[C@@H](CC(=O)O)C(=O)N[C@@H](CCCNC(=N)N)C(=O)N[C@H](C(N)=O)[C@@H](C)CC)C1 [JAL-1620, Occ-Sni-Thk-leu-Leu-Hyp-Nml-Asp-Arg-Ile-NH2] (Octanoyl-[X2][3Thi][dL]L[Hyp][NMeL]DRI-NH2)
CCCCCCCCN1CCC[C@H](C(=O)N[C@@H](Cc2ccccc2)C(=O)N[C@H](CC(C)C)C(=O)N[C@@H](CC(C)C)C(=O)N2C[C@H](O)C[C@H]2C(=O)N(C)[C@@H](CC(C)C)C(=O)N[C@@H](CC(=O)O)C(=O)N[C@@H](CCCNC(=N)N)C(=O)N[C@H](C(N)=O)[C@@H](C)CC)C1 [JAL-1302, Oct-Sni-Phe-leu-Leu-Hyp-Nml-Asp-Arg-Ile-NH2] (HELM PEPTIDE1{[CCCCCCCCN1CCC[C@H](C(=O)[*:2])C1].F.[dL].L.[Hyp].[meL].D.R.I.[am]}$$$$V2.0)
